Tested on: post-menopausal women
Experiment: Weekly severity of moderate to severe VMS, dose-finding study
Type: in vivo
Excerpt: To determine the Minimum Effective Dose (MED), firstly the selection criteria required that patients presented at least 7 moderate to severe VMS/day or at least 50 moderate to severe VMS/week in the week preceding randomization. Secondly, a placebo group was included in a double-blind fashion. Thirdly, the total patient number was such that statistical significance could be obtained between separate arms of the study. Fourthly, the absolute change from baseline in weekly frequency of moderate to severe VMS was taken into account. An analysis of covariance (ANCOVA) was performed based on the untransformed change in weekly frequency of moderate to severe VMS from baseline. Finally, the change in severity from baseline was evaluated. For this, the Severity Scoring System of VMS was documented by the subjects as follows: • a score of Mild (1) for a sensation of heat without sweating; • a score of Moderate (2) for a sensation of heat with sweating/the subject is able to continue activity; and • a score of Severe (3) for a sensation of heat with sweating/which causes cessation of activity.
In addition, a severity score of zero was attributed to the patients who have experienced a 100% VMS relief during a given week.
From these score records, the severity at baseline was calculated by taking into account only moderate and severe VMS, such that the total number of moderate VMS during the 7 days of the baseline week was multiplied by 2 and added to the total number of severe VMS during the 7 days of the baseline week multiplied by 3. This total was then divided by the total number of moderate and severe VMS during the baseline week.
The severity at weeks 4 and 12 was calculated using the following formula for each of these weeks: • the number of mild VMS during 7 days multiplied by 1; • the number of moderate VMS during 7 days multiplied by 2; • the number of severe VMS during 7 days multiplied by 3. and adding the 3 resulting numbers together before dividing this total by the total number of mild, moderate and severe VMS during the 7 days of the week.
This method was used to generate the data included in Example 1 further below, under section A. b) “VMS Severity”.
In order to better analyse the data recorded in this study, treatment groups have been compared using an ANCOVA (analysis of covariance) with respect to the change in severity of moderate to severe VMS from baseline to mild, moderate and severe VMS at week 4 and week 12 for each active treatment versus placebo. For women who experienced 100% VMS relief at week 4 and/or week 12, a value of zero was attributed. The ANCOVA model includes treatment (“trt1”) as a fixed effect and baseline (“base”) as a covariate. • b) Covariate significance

## C[C@]12CC[C@@H]3c4ccc(O)cc4CC[C@H]3[C@@H]1[C@@H](O)[C@@H](O)[C@@H]2O [E4, 1,3,5 (10)-estratrien-3,15alpha,16alpha,17beta-tetrol]
2.5 mg E4, week 4
  LS adjusted mean change from baseline in weekly severity of moderate to severe VMS: −0.3411
  LS adjusted mean relative change from baseline in weekly severity of moderate to severe VMS: −0.1453
2.5 mg E4, week 12
  LS adjusted mean change from baseline in weekly severity of moderate to severe VMS: −0.6296
  LS adjusted mean relative change from baseline in weekly severity of moderate to severe VMS: −0.275
2.5 mg E4 QD per os, week 1
  Mean change from baseline in weekly severity of moderate to severe VMS: −0.1542
  Relative change (% from baseline) in weekly severity of moderate to severe VMS, mean: −7%
2.5 mg E4 QD per os, week 2
  Mean change from baseline in weekly severity of moderate to severe VMS: −0.2112
  Relative change (% from baseline) in weekly severity of moderate to severe VMS, mean: −9%
2.5 mg E4 QD per os, week 3
  Mean change from baseline in weekly severity of moderate to severe VMS: −0.3246
  Relative change (% from baseline) in weekly severity of moderate to severe VMS, mean: −14%
2.5 mg E4 QD per os, week 4
  Mean change from baseline in weekly severity of moderate to severe VMS: −0.3373
  Relative change (% from baseline) in weekly severity of moderate to severe VMS, mean: −15%
2.5 mg E4 QD per os, week 5
  Mean change from baseline in weekly severity of moderate to severe VMS: −0.3984
  Relative change (% from baseline) in weekly severity of moderate to severe VMS, mean: −17%
2.5 mg E4 QD per os, week 6
  Mean change from baseline in weekly severity of moderate to severe VMS: −0.5014
  Relative change (% from baseline) in weekly severity of moderate to severe VMS, mean: −22%
2.5 mg E4 QD per os, week 7
  Mean change from baseline in weekly severity of moderate to severe VMS: −0.4562
  Relative change (% from baseline) in weekly severity of moderate to severe VMS, mean: −20%
2.5 mg E4 QD per os, week 8
  Mean change from baseline in weekly severity of moderate to severe VMS: −0.5359
  Relative change (% from baseline) in weekly severity of moderate to severe VMS, mean: −24%
2.5 mg E4 QD per os, week 9
  Mean change from baseline in weekly severity of moderate to severe VMS: −0.5465
  Relative change (% from baseline) in weekly severity of moderate to severe VMS, mean: −24%
2.5 mg E4 QD per os, week 10
  Mean change from baseline in weekly severity of moderate to severe VMS: −0.6052
  Relative change (% from baseline) in weekly severity of moderate to severe VMS, mean: −26%
2.5 mg E4 QD per os, week 11
  Mean change from baseline in weekly severity of moderate to severe VMS: −0.5564
  Relative change (% from baseline) in weekly severity of moderate to severe VMS, mean: −25%
2.5 mg E4 QD per os, week 12
  Mean change from baseline in weekly severity of moderate to severe VMS: −0.6279
  Relative change (% from baseline) in weekly severity of moderate to severe VMS, mean: −28%
2.5 mg E4 vs placebo, week 4
  Difference with placebo, LS adjusted mean, absolute change in weekly severity of moderate to severe VMS: −0.01329
  Difference with placebo, LS adjusted mean, relative change in weekly severity of moderate to severe VMS: −0.004358
2.5 mg E4 vs placebo, week 12
  Difference with placebo, LS adjusted mean, absolute change in weekly severity of moderate to severe VMS: 0.02869
  Difference with placebo, LS adjusted mean, relative change in weekly severity of moderate to severe VMS: 0.004705
5 mg E4, week 4
  LS adjusted mean change from baseline in weekly severity of moderate to severe VMS: −0.2386
  LS adjusted mean relative change from baseline in weekly severity of moderate to severe VMS: −0.09556
5 mg E4, week 12
  LS adjusted mean change from baseline in weekly severity of moderate to severe VMS: −0.4026
  LS adjusted mean relative change from baseline in weekly severity of moderate to severe VMS: −0.1649
5 mg E4 QD per os, week 1
  Mean change from baseline in weekly severity of moderate to severe VMS: −0.098
  Relative change (% from baseline) in weekly severity of moderate to severe VMS, mean: −4%
5 mg E4 QD per os, week 2
  Mean change from baseline in weekly severity of moderate to severe VMS: −0.1199
  Relative change (% from baseline) in weekly severity of moderate to severe VMS, mean: −5%
5 mg E4 QD per os, week 3
  Mean change from baseline in weekly severity of moderate to severe VMS: −0.1574
  Relative change (% from baseline) in weekly severity of moderate to severe VMS, mean: −7%
5 mg E4 QD per os, week 4
  Mean change from baseline in weekly severity of moderate to severe VMS: −0.2341
  Relative change (% from baseline) in weekly severity of moderate to severe VMS, mean: −10%
5 mg E4 QD per os, week 5
  Mean change from baseline in weekly severity of moderate to severe VMS: −0.1683
  Relative change (% from baseline) in weekly severity of moderate to severe VMS, mean: −7%
5 mg E4 QD per os, week 6
  Mean change from baseline in weekly severity of moderate to severe VMS: −0.3212
  Relative change (% from baseline) in weekly severity of moderate to severe VMS, mean: −14%
5 mg E4 QD per os, week 7
  Mean change from baseline in weekly severity of moderate to severe VMS: −0.2787
  Relative change (% from baseline) in weekly severity of moderate to severe VMS, mean: −12%
5 mg E4 QD per os, week 8
  Mean change from baseline in weekly severity of moderate to severe VMS: −0.3239
  Relative change (% from baseline) in weekly severity of moderate to severe VMS, mean: −14%
5 mg E4 QD per os, week 9
  Mean change from baseline in weekly severity of moderate to severe VMS: −0.3249
  Relative change (% from baseline) in weekly severity of moderate to severe VMS, mean: −14%
5 mg E4 QD per os, week 10
  Mean change from baseline in weekly severity of moderate to severe VMS: −0.3667
  Relative change (% from baseline) in weekly severity of moderate to severe VMS, mean: −15%
5 mg E4 QD per os, week 11
  Mean change from baseline in weekly severity of moderate to severe VMS: −0.4161
  Relative change (% from baseline) in weekly severity of moderate to severe VMS, mean: −18%
5 mg E4 QD per os, week 12
  Mean change from baseline in weekly severity of moderate to severe VMS: −0.4007
  Relative change (% from baseline) in weekly severity of moderate to severe VMS, mean: −17%
5 mg E4 vs placebo, week 4
  Difference with placebo, LS adjusted mean, absolute change in weekly severity of moderate to severe VMS: 0.08925
  Difference with placebo, LS adjusted mean, relative change in weekly severity of moderate to severe VMS: 0.04543
5 mg E4 vs placebo, week 12
  Difference with placebo, LS adjusted mean, absolute change in weekly severity of moderate to severe VMS: 0.2557

From patent publication US11484539B2, “Compounds and their uses for alleviating menopause-associated symptoms” (Estetra SPRL, priority 2018, dated 2022)
